Results on three molecules are retold here after PMC2114737 (The Journal of Cell Biology, 1987).

Test [1] addresses T1, N-formyl peptide receptor (Homo sapiens, UniProt P21462).
T1 sequence (P21462 1-350): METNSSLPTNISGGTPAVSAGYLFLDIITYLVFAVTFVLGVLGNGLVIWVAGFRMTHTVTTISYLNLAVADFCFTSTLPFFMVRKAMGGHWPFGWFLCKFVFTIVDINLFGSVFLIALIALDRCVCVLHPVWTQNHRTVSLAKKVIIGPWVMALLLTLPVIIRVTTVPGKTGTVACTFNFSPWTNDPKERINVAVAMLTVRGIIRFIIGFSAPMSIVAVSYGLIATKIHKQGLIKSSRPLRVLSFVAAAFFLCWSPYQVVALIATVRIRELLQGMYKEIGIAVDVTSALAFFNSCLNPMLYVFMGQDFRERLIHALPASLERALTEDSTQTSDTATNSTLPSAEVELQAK
It is filed as binding. The note with it: Table II; fast microsomes, unstimulated; mean, SD, n = 5.

Test [2] addresses T1, N-formyl peptide receptor. Put plainly: Effect of guanine nucleotides on receptor affinity states of fast membranes. It is filed as binding.

On to “N-formyl-Nle-Leu-Phe-Nle-Tyr- Lys-fluorescein [Fl-peptide]”, for which the “Percentage of receptor associated with State B” value in test [1] came out at 47%.
With `Nc1nc2c(ncn2[C@@H]2O[C@H](COP(=O)(O)OP(=O)(O)OP(O)(O)=S)[C@@H](O)[C@H]2O)c(=O)[nH]1` [GTP-y-S], the “Effect on state C receptor” value in test [2] (fast membranes from Fl-peptide-stimulated cells, GTP-γ-S, listed as GTP-gamma-S) is “insensitive”.
`Nc1nc2c(ncn2[C@@H]2O[C@H](COP(=O)(O)OP(=O)(O)OP(=O)(O)O)[C@@H](O)[C@H]2O)c(=O)[nH]1` [GTP]: the “Effect on state B dissociation rate / conversion to state A” value in test [2] (membranes from unstimulated cells, nucleotide 10 μM where stated) is “converted to the fastest ligand-dissociation state (state A)”.
